# Values of other authors in US20140100283A1, “Method to Increase Absorption and Bioavailability of Oral Glutathione” (Atlantic Pro Nutrients, Inc. dba XYMOGEN, priority 2012, published 2014).
# Details: in vivo
smiles,measurement,value
"N[C@@H](CCC(=O)N[C@@H](CS)C(=O)NCC(=O)O)C(=O)O [glutathione, Glutathione]",increase in circulating glutathione after oral administration,does not increase circulating glutathione to a clinically beneficial extent
